# Results reported in PMC12738692, “Identification, characterization, and structure-activity relationship of the ASIC3-selective peptide WRPRFa” (Communications Chemistry, 2025).
# Changes are numbered by the printed parent chain. Where no end group is shown, it is not given here.
# Tests used:
# Format in all cases: cell-based
# [1] = molecular target: T1, human ASIC3 (Homo sapiens, UniProt Q9UHC3); settings: 30 µM, QPatch II
# T1 construct: CHO cells stably expressing human ASIC3 (NM_004769.1)
# T1 sequence (Q9UHC3 1-531): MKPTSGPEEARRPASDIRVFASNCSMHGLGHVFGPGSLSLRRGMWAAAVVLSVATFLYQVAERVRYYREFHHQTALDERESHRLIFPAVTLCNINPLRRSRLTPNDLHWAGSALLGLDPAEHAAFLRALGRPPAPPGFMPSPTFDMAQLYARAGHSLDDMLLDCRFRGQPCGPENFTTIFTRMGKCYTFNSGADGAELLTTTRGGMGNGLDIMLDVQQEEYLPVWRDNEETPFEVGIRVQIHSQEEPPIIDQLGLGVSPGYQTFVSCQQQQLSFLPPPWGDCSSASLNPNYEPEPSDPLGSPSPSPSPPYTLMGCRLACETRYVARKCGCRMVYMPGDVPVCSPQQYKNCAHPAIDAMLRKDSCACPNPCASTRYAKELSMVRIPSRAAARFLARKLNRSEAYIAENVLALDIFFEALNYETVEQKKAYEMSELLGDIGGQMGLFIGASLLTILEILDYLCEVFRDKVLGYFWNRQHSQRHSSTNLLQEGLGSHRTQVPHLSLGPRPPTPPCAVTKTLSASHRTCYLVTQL
# [2] = molecular target: T1, human ASIC3; assay: QPatch II peptide concentration-response (I3s/Ipk); settings: WT ASIC3, QPatch II, read-out: EC50 (95% CI)
# Protocol: RFamide peptide activity on ASIC3 was measured on the QPatch II platform (Sophion, Ballerup, Denmark) using either a CHO or HEK stable cell line and analyzed with Sophion Analyzer software (version 5.2). Prior to recording, the cells were washed twice in PBS (Gibco, Paisley, UK) and treated with Detachin (Genlantis, San Diego) for 3 min, then resuspended in their respective growth media without serum for a concentration of 2 × 10^6 cells/ml. A minimum of 5 mL of cells was added to the QStirrer, which was placed on the deck of the QPatch II and allowed to incubate at room temperature for a minimum of 20 min.
# The bath solution contained 135 mM NaCl, 5 mM KCl, 4.8 mM CaCl2, 1 mM MgCl2, 10 mM HEPES, 10 mM MES, and 10 mM glucose adjusted to pH 7.4 with NaOH. The intracellular solution contained 65 mM CsF, 65 mM CsCl, 10 mM HEPES, 5 mM EGTA, 1 mM MgCl2, adjusted to pH 7.4 with CsOH. Cells were held at -60 mV and ASIC currents were evoked with 3 s applications of pH 6.3 buffer. Peptides were preincubated for at least 2 min. The extracellular solution was changed by dispensing 5 µL of buffer through the ~1.7 µL recording chamber, with a solution switch time of 100 ms, that exchanges 99% of the solution. Signals were acquired at 1 kHz and low-pass filtered at 300 Hz. Experiments performed on QPatch II are specifically indicated in the text.
# [3] = molecular target: T2, ASIC3 E421Q (Homo sapiens, UniProt Q9UHC3, E421Q); assay: MPC peptide activity on ASIC3 E421Q mutant; settings: Emax constrained, read-out: EC50 (95% CI)
# T2 construct: human ASIC3 (NM_004769.4); P2A-mCherry reporter (C, cleaved yes); expressed in transfected cells; host or cells: CHO cells (85050302, Sigma), transient transfection
# T2 sequence (Q9UHC3 1-531 E421Q): T1 sequence (Q9UHC3 1-531) with E421Q
# Protocol: We individually mutated the four glutamates to glutamine to remove their charge but maintain the side chain structure (Fig. 4C). We tested each mutant by incubating HEK cells stably expressing ASIC3 or CHO cells transfected with mutant ASIC3 with 30 µM WRPRFa before a pH 6.3 acid stimulus.
# Plasmids were transfected into CHO cells using Lipofectamine 3000 (Thermo) according to the manufacturer’s protocol. Cells were used for patch-clamp recordings 24–48 h after transfection.
# CHO and HEK cells were tested in the whole-cell configuration on MPC platforms using an Axopatch 200B amplifier (Axon Instruments, San Jose, CA) and a Digidata 1322A or Digidata 1440A digitizer (Axon) using pClamp 9.2 or 10.7 (Molecular Devices, San Jose, CA), respectively. When testing transfected cells, red fluorescence from the cleaved mCherry reporter was used to identify cells expressing ASIC3, ASIC131, or ASIC313. For cells expressing transfected ASIC1a or ASIC2a, the green signal from the cleaved eGFP reporter was used. All electrophysiology data were analyzed with Clampfit 11.1 (Molecular Devices).
# For peptide concentration-response curves, Bottom was set to 0 and Top was constrained to ≤ 1 for peptides that approached plateau phase or where I3s/Ipk reached 1. […] For activation- or desensitization-pH curves, Bottom was set to 0 and Top constrained to 1.
# [4] = molecular target: T1, human ASIC3; settings: from pH-dependence of activation
# [5] = molecular target: T1, human ASIC3; assay: pH-dependence of steady-state desensitization (SSD) of ASIC3; settings: conditioning pH 7.0, 30 µM
# Protocol: Lastly, we tested the effect of 30 µM WRPRFa on SSD of ASIC3. First, we sought to determine if, like activation, WRPRFa also changed the pH-dependence of steady-state desensitization for ASIC3. We preconditioned cells at pH 8.0–7.0 for 20 s to elicit SSD, followed immediately by a test pulse to pH 6.3 (Fig. 7F and G) to measure the fraction of channels that were not desensitized. The current evoked by each pH 6.3 test pulse was normalized to the pH 6.3 pulse following pH 8.0 conditioning and plotted against the conditioning pH to determine the pH-dependence of SSD. For untreated cells, the peak current (Ipk) was recorded, and for WRPRFa-treated cells, the current 3 s after the peak (I3s) was used. Untreated channels were completely desensitized at pH 7.0, while the WRPRFa-treated channels reached a plateau at pH 7.0 with about 30% of channels desensitized. […] The 0.11 unit shift is larger than that reported for RPRFa (0.03 unit shift)[30].
substance,measurement,setting,value
WRPRF-NH2 [WRPRFa],channels affected,[1],80%
same,EC50,[2],6.31 µM
same,EC50,[3],≥ 22.5 µM
same,peptide-bound channels activated by pH 6.3,[4],99.7%
same,channels desensitized at plateau,[5],about 30%
